Measurements reported in paper PMC9775191, “A Subset Screen of the Compounds Australia Scaffold Library Identifies 7-Acylaminodibenzoxazepinones as Potent and Selective Hits for Anti-Giardia Drug Discovery” (Biomedicines, 2022).

System: Acinetobacter baumannii (ATCC 19606)
Assay: Anti-bacterial activity assay
Type: cell-based
Details: ATCC19606, 50 µM
Outline: (§1)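 Compounds tested once at 50 µM in duplicate against mid-log cultures at 5 × 10^5 CFU/mL, incubated 18 h at 37 °C without shaking. Growth read by absorbance at 600 nm; percentage inhibition calculated relative to bacteria-only wells. Vancomycin (Gram-positive) and colistin (Gram-negative) served as plate controls.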

| Compound | inhibition at 50 µM [%] |
| --- | --- |
| CC(C)c1ccc(Nc2ncccc2S(=O)(=O)N2CCCC2)cc1 [SN00799289, CC(C)c1ccc(cc1)Nc1ncccc1S(=O)(=O)N1CCCC1] | 4.74 |

System: Klebsiella pneumoniae (ATCC 700603)
Assay: Anti-bacterial activity assay
Type: cell-based
Details: ATCC700603, 50 µM, read-out: Bacterial Inhibition K. pneumoniae
Outline: as §1

| Compound | inhibition at 50 µM [%] |
| --- | --- |
| CC(C)c1ccc(Nc2ncccc2S(=O)(=O)N2CCCC2)cc1 [SN00799289, CC(C)c1ccc(cc1)Nc1ncccc1S(=O)(=O)N1CCCC1] | 14.4 |

System: methicillin resistant Staphylococcus aureus (ATCC 43300)
Assay: Anti-bacterial activity assay
Type: cell-based
Details: Staphylococcus aureus, ATCC43300, 50 µM; read-out: Bacterial Inhibition S. aureus
Outline: as §1

| Compound | inhibition at 50 µM [%] |
| --- | --- |
| CC(C)c1ccc(Nc2ncccc2S(=O)(=O)N2CCCC2)cc1 [SN00799289, CC(C)c1ccc(cc1)Nc1ncccc1S(=O)(=O)N1CCCC1] | 3.06 |

System: Escherichia coli (ATCC 25922)
Assay: Anti-bacterial activity assay
Type: cell-based
Details: Escherichia coli, ATCC25922, 50 µM; read-out: Bacterial Inhibition E. coli
Outline: as §1

| Compound | inhibition at 50 µM [%] |
| --- | --- |
| CC(C)c1ccc(Nc2ncccc2S(=O)(=O)N2CCCC2)cc1 [SN00799289, CC(C)c1ccc(cc1)Nc1ncccc1S(=O)(=O)N1CCCC1] | 1.89 |

System: Neonatal foreskin fibroblast (NFF) cells
Assay: Mammalian cell cytotoxicity assay (sulforhodamine B)
Type: cell-based, human
Details: Homo sapiens, NFF, mean ± SD; read-out: IC50 NFF
Outline: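 Cytotoxicity against neonatal foreskin fibroblasts was read by sulforhodamine B staining, with media-only, untreated, DMSO-vehicle and chloroquine controls. Dose–response started at 100 µM. Selectivity index = NFF IC50 divided by G. duodenalis BRIS/91/HEPU/1279 IC50.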

| Compound | IC50 [µM] |
| --- | --- |
| Cc1ncc([N+](=O)[O-])n1CCO [Metronidazole, reference compound] | > 75 |

Same assay, conditions: Homo sapiens, NFF; 20 µM; ±SD

| Compound | inhibition at 20 µM [%] |
| --- | --- |
| CC(C)c1ccc(Nc2ncccc2S(=O)(=O)N2CCCC2)cc1 [SN00799289, CC(C)c1ccc(cc1)Nc1ncccc1S(=O)(=O)N1CCCC1] | 11.4 ± 13.4 |

Same assay, conditions: Table S2; NFF vs 48 h Giardia IC50

| Compound | SI (48h Gd) |
| --- | --- |
| CC(C)c1ccc(Nc2ncccc2S(=O)(=O)N2CCCC2)cc1 [SN00799289, CC(C)c1ccc(cc1)Nc1ncccc1S(=O)(=O)N1CCCC1] | > 5 |

System: G. duodenalis BRIS/91/HEPU/1279
Assay: Primary Giardia screen at 10 µM (live-cell imaging, automated counting)
Type: cell-based, Giardia duodenalis
Details: Giardia duodenalis, 24 h, first singlicate assay, read-out: % Inhibition n=1 24h
Outline: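 Compounds were tested once each at 10 μM final (0.2% DMSO) in culture medium under 3% O2, 5% CO2 in N2. Growth was read at 24 and 48 h by live-cell imaging with automated counting, and inhibition expressed as percent growth versus 0.2% DMSO vehicle after media-only background subtraction.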

| Compound | inhibition at 10 µM [%] |
| --- | --- |
| CC(C)c1ccc(Nc2ncccc2S(=O)(=O)N2CCCC2)cc1 [SN00799289, CC(C)c1ccc(cc1)Nc1ncccc1S(=O)(=O)N1CCCC1] | 43.9 |

Same assay, conditions: Giardia duodenalis, 24 h, re-assessment, read-out: % Inhibition n=2 24h

| Compound | inhibition at 10 µM [%] |
| --- | --- |
| CC(C)c1ccc(Nc2ncccc2S(=O)(=O)N2CCCC2)cc1 [SN00799289, CC(C)c1ccc(cc1)Nc1ncccc1S(=O)(=O)N1CCCC1] | 10.1 |

Same assay, conditions: Giardia duodenalis, 24 h, read-out: Average % Inhibition 24h

| Compound | inhibition at 10 µM [%] |
| --- | --- |
| CC(C)c1ccc(Nc2ncccc2S(=O)(=O)N2CCCC2)cc1 [SN00799289, CC(C)c1ccc(cc1)Nc1ncccc1S(=O)(=O)N1CCCC1] | 27 |

Same assay, conditions: Giardia duodenalis, 48 h, first singlicate assay, read-out: % Inhibition n=1 48h

| Compound | inhibition at 10 µM [%] |
| --- | --- |
| CC(C)c1ccc(Nc2ncccc2S(=O)(=O)N2CCCC2)cc1 [SN00799289, CC(C)c1ccc(cc1)Nc1ncccc1S(=O)(=O)N1CCCC1] | 73.3 |

Same assay, conditions: Giardia duodenalis, 48 h, re-assessment, read-out: % Inhibition n=2 48h

| Compound | inhibition at 10 µM [%] |
| --- | --- |
| CC(C)c1ccc(Nc2ncccc2S(=O)(=O)N2CCCC2)cc1 [SN00799289, CC(C)c1ccc(cc1)Nc1ncccc1S(=O)(=O)N1CCCC1] | 41.7 |

Same assay, conditions: Giardia duodenalis, 48 h, read-out: Average % Inhibition 48h

| Compound | inhibition at 10 µM [%] |
| --- | --- |
| CC(C)c1ccc(Nc2ncccc2S(=O)(=O)N2CCCC2)cc1 [SN00799289, CC(C)c1ccc(cc1)Nc1ncccc1S(=O)(=O)N1CCCC1] | 57.5 |

System: G. duodenalis BRIS/91/HEPU/1279
Assay: Giardia dose response assay, assemblage B
Type: cell-based, Giardia duodenalis
Details: Giardia duodenalis, 24 h, read-out: G. duodenalis IC50 24h, Table S2; 24 h; ±SD; max 10 µM
Outline: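 Assemblage B trophozoites (BRIS/91/HEPU/1279, 1.5 × 10^4 parasites/well) faced 8–12-point doubling dilutions in duplicate, incubated 48 h at 37 °C under 3% O2, 5% CO2 in N2. Parasites were imaged and counted at 24 and 48 h. Growth inhibition was taken versus vehicle controls minus background, with IC50 by log-linear interpolation.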

| Compound | IC50 [µM] |
| --- | --- |
| CC(C)c1ccc(Nc2ncccc2S(=O)(=O)N2CCCC2)cc1 [SN00799289, CC(C)c1ccc(cc1)Nc1ncccc1S(=O)(=O)N1CCCC1] | > 10 |

Same assay, conditions: Giardia duodenalis, 48 h, Table S2; 48 h; ±SD; max 10 µM; read-out: G. duodenalis IC50 48h

| Compound | IC50 [µM] |
| --- | --- |
| CC(C)c1ccc(Nc2ncccc2S(=O)(=O)N2CCCC2)cc1 [SN00799289, CC(C)c1ccc(cc1)Nc1ncccc1S(=O)(=O)N1CCCC1] | 3.36 ± 1.52 |

System: Giardia infections
Assay: not given
Details: 5-nitroimidazoles; cited from earlier work

| Compound | clinical failure rates |
| --- | --- |
| Cc1ncc([N+](=O)[O-])n1CCO [Metronidazole, reference compound] | 40–70% |
| CCS(=O)(=O)CCn1c([N+](=O)[O-])cnc1C [tinidazole] | 40–70% |

Same assay, conditions: cited from earlier work

| Compound | treatment efficacy rates |
| --- | --- |
| CCCSc1ccc2nc(NC(=O)OC)[nH]c2c1 [Albendazole] | 25–90% |
